Common to all, as to assay type: cell-based, Murine
The test system of experiment [1] is MSCs. Kind of experiment: YAP localization in MSCs confined on fibronectin line patterns treated with modulators of nuclear import. The conditions noted are these: for YAP Ratio with increasing Kmax XY: fibronectin line patterns 1.5-8 μm, Pitstop2 30 μM 1 hour; for nuclear YAP on thick (8 μm) and thin (1.5 μm) line patterns: microscopy, FIGS. 15B-15D. As to the method: Glass coverslips were adhesively micropatterned on 22*22 mm no. 1 with a UV-based patterning system (PRIMO, Alveole Lab, Paris, France). Glass coverslips were incubated with Poly-L-Lysine (PLL, Sigma) solution (5 mg/mL) prepared in 0.1 M HEPES buffer (pH 8.5) for 1 hour at room temperature, followed by rinsing with MiliQ™ water. Positively charged PLL electrostatically adsorbed onto the negatively charged surface of silicone substrates and allowed protein attachment after printing. The coverslips were then incubated with Polyethylene glycol valeric acid (PEG-SVA, Laysan Bio) prepared in 0.1 M HEPES buffer (pH 8.5) for 30 minutes at room temperature, followed by thorough rinsing with phosphate buffer saline (PBS) pH 7. PEG-SVA acts as an antifouling brush layer that repels protein attachment. The coverslips were then covered with the UV sensitive photo-initiator solution of PLPP (Alveole Lab, Paris, France) and placed on the stage of a microscope (Nikon Ti2 Eclipse) equipped with the UV-patterning system.
To generate the patterns, open-source graphics software programs were used, Inkscape and ImageJ, to generate binary 8-bit mask image files that were loaded into PRIMO's control software. The desired pattern was generated by a digital micromirror array in the PRIMO system and projected using a 375 nm UV laser with an intensity of 29 mW/mm^2 via 20×/0.45NA objective. The projected pattern results in localized photodegradation of the antifouling PEG-SVA brush, in the shape of the desired pattern. An exposure dose of 20 seconds was adequate to complete photodegradation of the PEG-SVA brush. Following UV exposure, the coverslips were washed with PBS and incubated them for 1 hr at room temperature with 40 μg/mL fibronectin (Sigma) in PBS to adsorb the protein to the exposed PLL surface. Excess protein was rinsed off with PBS 3 times prior to cell seeding.
(§1) To observe endogenous YAP localization, the MSCs were fixed with 4% paraformaldehyde for 15 min in room temperature and washed 3 times with PBS. The cells were permeabilized with 0.1% Triton X-100 diluted in PBS for 10 minutes. To avoid any nonspecific binding, cells were incubated with 1% bovine serum albumin (BSA) in PBS for 30 minutes at room temperature. To visualize YAP, cells were first incubated with 10 μg/ml Anti-YAP1 mouse monoclonal antibody (ab56701, Abcam™) diluted in 1% BSA in PBS overnight, followed by PBS wash and 1 hour incubation with 10 μg/ml Donkey Anti-Mouse IgG H&L (Alexa Fluor™ 647) secondary antibody (ab150107, Abcam™) diluted in 1% BSA in PBS. For nuclear characterization, nuclei were stained with 10 μg/ml Bisbenzimide Hoechst 33342 trihydrochloride (Sigma™) in PBS for 20 minutes, cells were washed with PBS.
To identify the mechanisms involved in YAP localization via nuclear curvature, MSCs were confined on fibronectin line patterns of decreasing thickness and then exposed to various drugs that manipulate active and passive nuclear import mechanisms. Finally, MSCs were fixed and stained with Anti-YAP1 antibody and Hoechst as explained above. To inhibit active nuclear import, MSCs were treated with 40 μM Importazole (cayman chemicals) for 1 hour, it inhibits importinβ/Ran GTP nuclear import pathway. For inhibiting both active and passive nuclear import, MSCs were treated with 30 μM Pitstop2 (abcam) for 1 hour, it disrupts nuclear pore complex structure and blocks nuclear pores. […]

The test system of experiment [2] is MSCs transfected with Nesprin 2G tension sensor. Kind of experiment: Nesprin 2G FRET tension sensor, nuclear membrane tension in MSCs. As to conditions: before versus after actin depolymerization. The text has this:
To measure nuclear membrane tension, MSCs were co-transfected Nesprin tension sensor (pcdna nesprin TS, 68127, Addgene) and iRFP-YAP plasmid. Nesprin tension sensors are fluorescent resonance energy transfer-based tension biosensors for nesprin 2G, a structural protein at the LINC complex, which links actin cytoskeleton to the nucleus. For control experiments, MSCs were transfected with Nesprin headless control (pcdna nesprin HL, 68128, Addgene), which lacks the actin-binding domain and is localized on the nuclear membrane. […]
All the image processing and analysis was performed on open-source Image J software. […] Ratio images were calculated by dividing the unmixed venus channel by the unmixed teal channel. For each image, binary masks were manually created in ImageJ to exclude pixels outside of the nuclear membrane as determined by the mVenus channel. […] Local FRET intensity and local curvature were measured using Kappa Curvature Analysis plugin in Image J. In brief, the 2D FRET images were opened in Kappa Curvature Analysis plugin and using a selection tool, points were manually selected across the nuclear membrane and a closed curvature fit was performed. […]

For experiment [3], the system named is MSCs. Kind of experiment: Cytochalasin D treatment: endogenous YAP localization and nuclear deformation in MSCs on fibronectin-coated glass coverslips. As to conditions: versus wildtype MSCs. As for the experimental part: For YAP localization measurements MSCs were imaged in two channels one for iRFP YAP transfected or Alexa 647 conjugated secondary antibody-stained cells (Ex 647 nm laser) and other for Hoechst-stained nuclei (Ex 405 nm laser). The principal metric for YAP quantification was the ratio of fluorescence of iRFP YAP in the nucleus to iRFP YAP in the cytoplasm and is referred to as the YAP Ratio. Image segmentation was performed using a custom MATLAB code, that segments the nucleus from Hoechst and cytoplasm from YAP and measures the ratio of total iRFP YAP fluorescence inside the nucleus to total iRFP YAP fluorescence in the cytoplasm.
as §1
To study the role of nuclear deformation in YAP localization, XYZ stacks of Hoechst-stained nuclei of iRFP YAP transfected MSCs were captured using confocal microscope (Leica TCS SP8, 63× objective) with a closed pinhole 0.5 AU and thin Z step size of 0.3 μm. All the XYZ stacks were analyzed using a custom MATLAB code that measures nuclear volumes, surface area, height, major axis, minor axis, and curvature. In brief, the three-dimensional XYZ stacks were, preprocessed by background subtraction threshold, and binarization. The nuclear volumes, surface area, height, major axis, and minor axis were first measured in pixels using regionprops3™ in MATLAB, which were then converted to microns. Nuclear flatness, Nuclear Eccentricity and Nuclear Aspect Ratio were measured using the following equations: […]
For nuclear curvature analysis, XYZ stacks of Hoechst-stained nuclei were resliced into 2D image sections in XY, XZ and YZ directions. For each resliced 2D nuclear image, curvature was measured across the nuclear boundary, using a curvature function in MATLAB. […] This provided us with distribution of curvature values of the complete nucleus quantified from resliced nuclear images in all three dimensions of XY, XZ and YZ separately (FIGS. 9A-9L). […]

Where [4] appears, read: Importazole 40 μM 1 hour, trans-1,2-Cyclohexanediol 258 mM 5 mins.
Where [5] appears, read: 1.5 μM for 2 hours, fibronectin-coated glass coverslips.

Consider `CC(Nc1nc(N2CCCC2)nc2ccccc12)c1ccccc1` (stereo not shown) [importazole, Importazole], for which the “YAP Ratio with increasing Kmax XY” value in experiment [1] (setting [4]) is “small increase in YAP ratios with increasing Kmax XY”. Moreover, the “YAP Ratio compared with untreated MSCs” value in experiment [1] (fibronectin line patterns, Importazole 40 μM 1 hour, trans-1,2-Cyclohexanediol 258 mM 5 mins) is on record as “substantially less than untreated MSCs”. For the same compound, the “nuclear YAP on thick (8 μm) and thin (1.5 μm) line patterns” value in experiment [1] was “low nuclear YAP on both thick (8 μm) and thin line patterns (1.5 μm)”.
Take `C=C1[C@@H](C)[C@H]2[C@H](Cc3ccccc3)NC(=O)[C@]23[C@H](OC(C)=O)/C=C/[C@@](C)(O)C(=O)[C@@H](C)C/C=C/[C@H]3[C@@H]1O` [Cytochalasin D]: the “FRET intensity (increase = decrease in nuclear membrane tension)” value in experiment [2] is on record as “increase in FRET intensity”. Further, the “YAP Ratio (nuclear to cytoplasmic YAP, endogenous, anti-YAP antibody)” value is recorded as “low YAP ratio” in experiment [3] (setting [5]) and “lower YAP Ratios” in experiment [3] (1.5 μM for 2 hours, fibronectin-coated glass coverslips, listed as Cyto D). Further, the nuclear volume result in experiment [3] (setting [5]) was “high nuclear volumes”. Further, the “maximum nuclear curvature (Kmax XZ) / nuclear curvature distribution” value in experiment [3] (Hoechst-stained nuclei, XYZ stacks, listed as Cyto D) is “lower maximum curvature in XZ”.
As for `O=C1NC(=NS(=O)(=O)c2cccc3ccccc23)S/C1=C\c1ccc(Br)cc1` [Pitstop2], the “YAP Ratio with increasing Kmax XY” value in experiment [1] (setting [4]) is listed as “complete inhibition of curvature influenced YAP Ratio”. In addition, in experiment [1], the “nuclear YAP on thick (8 μm) and thin (1.5 μm) line patterns” value was “low nuclear YAP on both thick (8 μm) and thin (1.5 μm) line patterns”.
